Test results published in US11434205B2, “Substituted imidazole carboxylate derivatives and the use thereof” (priority 2018, dated 2022).
Like-named read-outs stand apart in the source and are kept apart here.

Key:
[1] = test system: rats; experiment: Loss of righting reflexes (LORR) assay in rats, ED50 by up and down method; assay type: in vivo, rat; settings: Rattus norvegicus, tail vein, class symbols
Method: The Anesthetic Activity of the Compounds was Assessed in Rats Using a Loss of Righting Reflexes (LORR) Assay
(§1) Adult male Sprague-Dawley rats (250-300 g) were selected for the experiment. […] The anesthesia effects of the compounds were assessed in rats using a LORR assay and a period >30 s was considered as an indicator of general anesthesia. Then the up and down method was used to determine 50% effective dose (ED50). The drugs were administered through the tail vein of rats in a volume of 0.6 mL and at a rate of 0.1 mL/s.

[2] = test system: rats
Method: as §1

[3] = test system: secretion of corticosterone, H295R cell line; experiment: cells; assay type: cell-based; settings: for EC50: Homo sapiens, NCI-H295R, read-out: EC50 (Corticosterone)
Method: (§2) The Effects of the Compounds on Adrenocortical Function In Vitro Test
(§3) Then secretion of the cortisol and corticosterone in the supernatant, was measured using HPLC-MS/MS method to determine whether the compounds of the present invention had adrenotoxic potential.

[4] = test system: secretion of cortisol, H295R cell line; experiment: cells; assay type: cell-based; settings: for EC50: Homo sapiens, NCI-H295R, read-out: EC50 (Cortisol)
Method: as §2, §3

[5] = test system: rats; experiment: Pharmacological characteristics at equivalent doses (2×ED50) in rats; settings: 2×ED50, tail vein; for Adverse reactions: Red urine (incidence): DMSO solution (DMSO alone 10/10); for Onset time: time of LORR
Method: Comparison of Pharmacological Characteristics of the Compounds at Equivalent Doses (2×ED50) in Rats
Adult male Sprague-Dawley rats (250-300 g) were selected for the experiment (n=8). […] The drugs were administered at a dose twice their ED50 through the tail vein of rats in a volume of 0.6 mL and at a rate of 0.1 mL/s. In addition, the time of LORR was recorded as the onset time of anesthesia. […] Furthermore, the duration of the pharmacological effects is sufficient to meet the time requirements for rapid induction of general anesthesia and for diagnostic examinations, some short invasive clinical examinations, or operations.

[6] = test system: rats; remark: listed apart in the source
Method: Pharmacological Effects of the Compounds on Continuous Infusion in Rats
Adult male Sprague-Dawley rats with body weight ranging from 250 to 300 gm were selected for continuous infusion test. […] Time to recovery of righting reflex from stopping infusion, and time to fully awake from stopping infusion were recorded.

[7] = continuous tail vein infusion at 2×MIR, LORR maintained 1 hour, Table D4
[8] = H295R cell line, 0.1-10000 nM, HPLC-MS/MS, Table D3

SMILES	ED50 [1] [mg/kg]	Approximate therapeutic index [2]	Minimal lethal dose [2] [mg/kg]	Corticosterone as an indicator to determine the presence of inhibition ([3]; H295R, Table A3)	EC50 [3] [µM]	Cortisol as an indicator to determine the presence of inhibition ([4]; H295R, Table A3)	EC50 [4] [µM]	Righting reflex duration [5] [min]	Adverse reactions: Red urine (incidence) [5]	Onset time [5] [min]	also measured
CCC1(COC(=O)c2cncn2[C@H](C)c2ccccc2)CC1 [Compound A9]	0.1 to 0.5	>13	>5	0	> 10	0	> 10	4.80 ± 1.25	8/8	0.40 ± 0.15	Adverse reactions: Tremor (incidence) ([5]; animals affected/animals): 5/8
C[C@H](c1ccccc1)n1cncc1C(=O)OC1(C)CCC1=O (stereo partly shown) [Compound A13]	0.1 to 0.5	>10	>4	0	> 10	0	> 10	2.31 ± 2.14	Red urine (8/8)	0.56 ± 0.12	
C[C@H](c1ccccc1)n1cncc1C(=O)OCC1(C(F)F)CCC1 [Compound A19]	0.1 to 0.5	>10	>5	0	> 10	0	> 10	6.13 ± 2.87	Red urine (8/8)	0.36 ± 0.16	
C[C@H](c1ccccc1)n1cncc1C(=O)OC1(C2CO2)CCC1 (stereo partly shown) [Compound A20]	0.01 to 0.1	>22	>3	0	> 10	0	> 10	1.90 ± 0.74	Red urine (8/8)	0.11 ± 0.03	
C[C@H](c1ccccc1)n1cncc1C(=O)OCC1(C2CO2)CCC1 (stereo partly shown) [Compound A21]	0.1 to 0.5	>16	>5	0	> 1	0	> 1	1.75 ± 0.26	Red urine (8/8)	0.27 ± 0.19	Recovery time after stopping infusion ([6]; after 1 hour infusion at 2×MIR): 15 to 25 min; Types and incidence of adverse reactions ([6]; continuous infusion 2×MIR, in words): No; Onset time ([6]; emulsion, continuous infusion at 2×MIR): 3 to 4 min
CCC(=O)C1(OC(=O)c2cncn2[C@H](C)c2ccccc2)CC1 [Compound C16]	0.5 to 1	>14	>10		> 1		> 1	1.31 ± 0.95	Red urine (8/8)	0.73 ± 0.23	Corticosterone as an indicator to determine the presence of inhibition ([3]; H295R, Table C3): 0; Cortisol as an indicator to determine the presence of inhibition ([4]; H295R, Table C3): 0
CCC(C)(C)OC(=O)c1cncn1[C@H](C)c1ccccc1 [Compound C19]	0.1 to 0.5	>20	>5		> 1		> 1	1.26 ± 0.99	Red urine (8/8)	0.45 ± 0.23	Corticosterone as an indicator to determine the presence of inhibition ([3]; H295R, Table C3): 0; Cortisol as an indicator to determine the presence of inhibition ([4]; H295R, Table C3): 0
CSCCSC(=O)c1cncn1[C@H](C)c1ccccc1 [Compound C30]	0.5 to 1	>11	>11				> 1	3.67 ± 1.48	Red urine (8/8)	0.23 ± 0.03	Corticosterone as an indicator to determine the presence of inhibition ([3]; H295R, Table C3): 0; Cortisol as an indicator to determine the presence of inhibition ([4]; H295R, Table C3): 0
C=C=CC1(OC(=O)c2cncn2[C@H](C)c2ccccc2)CSC1 [Compound D28]	0.01 to 0.1	>16	>10		> 10		> 10	5.09 ± 1.89	Red urine (8/8)	0.25 ± 0.06	Onset time [6, 7]: 3 to 4 min; Recovery time after stopping infusion [6, 7]: 13 to 16 min; Types and incidence of adverse reactions [6, 7]: Tremor (2/6); Corticosterone as an indicator to determine the presence of inhibition [3, 8]: 0; Cortisol as an indicator to determine the presence of inhibition [4, 8]: 0
CC#CC1(OC(=O)c2c(F)ncn2[C@H](C)c2ccccc2)CSC1 [Compound E91]	0.5 to 1	>6	>20					1.24 ± 0.63	(8/8)	0.48 ± 0.21	
C[C@H](c1ccccc1)n1c(Cl)nc(Cl)c1C(=O)OC1COC1 [Compound E132]	0.5 to 1	>14	>10					2.70 ± 1.15	urine (8/8)	0.18 ± 0.06	Adverse reactions: Restlessness (incidence) [5]: (2/8), Red
